Where a name gives a salt, the structure may show the parent alone. Read-outs that look alike come from different tables or passages of the source.

The IC50 is the concentration at which inhibition is half-maximal.

One experiment concerns the target T1, PKC epsilon (Homo sapiens, UniProt Q02156).
T1 construct: purchased Invitrogen P2282
T1 sequence (Q02156 1-737): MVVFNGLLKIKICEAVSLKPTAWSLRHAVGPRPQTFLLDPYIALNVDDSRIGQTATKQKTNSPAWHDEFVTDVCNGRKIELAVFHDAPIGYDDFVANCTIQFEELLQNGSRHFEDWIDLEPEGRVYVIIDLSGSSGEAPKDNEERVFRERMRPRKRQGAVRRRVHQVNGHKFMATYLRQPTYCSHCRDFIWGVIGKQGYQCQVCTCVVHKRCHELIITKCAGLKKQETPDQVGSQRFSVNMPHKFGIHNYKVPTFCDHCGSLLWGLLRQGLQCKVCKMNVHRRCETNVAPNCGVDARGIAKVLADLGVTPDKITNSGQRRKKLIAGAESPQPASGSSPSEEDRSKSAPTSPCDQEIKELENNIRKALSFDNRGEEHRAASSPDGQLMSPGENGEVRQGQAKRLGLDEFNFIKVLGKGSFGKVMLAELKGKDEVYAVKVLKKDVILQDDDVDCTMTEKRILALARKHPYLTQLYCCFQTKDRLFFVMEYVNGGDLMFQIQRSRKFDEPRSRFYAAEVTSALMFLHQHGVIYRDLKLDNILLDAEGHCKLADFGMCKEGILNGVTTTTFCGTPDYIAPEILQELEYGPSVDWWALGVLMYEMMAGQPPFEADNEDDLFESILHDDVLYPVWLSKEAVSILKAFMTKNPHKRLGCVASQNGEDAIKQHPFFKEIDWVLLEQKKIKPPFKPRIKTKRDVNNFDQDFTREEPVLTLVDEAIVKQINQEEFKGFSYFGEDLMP
As to the kind of experiment: Biochemical assay for PKC epsilon (fluorescence polarization, Protein Kinase C Assay Kit, Red). To be noted: read-out: IC50 μM PKCε. The gist of the method:
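PKC epsilon at 10 ng/ml final was preincubated 30 min at room temperature with compound in HEPES pH 7.4 with DTT and Triton X-100. ATP/protein substrate was then added in buffer with MgCl2 and CaCl2 for 80 min. The reaction was stopped with EDTA, phosphorylation was detected by fluorescence polarization with rhodamine tracer and anti-phosphoserine antibody, and IC50 values came from curve fits.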
A general note: Fluorescence polarisation rises when a labelled molecule tumbles more slowly, as on binding a larger partner.

The target in the next experiment is T2, human ROCKα/ROCKII mix (Homo sapiens, UniProt O75116).
T2 construct: purchased Upstate Biotechnology 14-451
Description: Biochemical assay for ROCK (fluorescence polarization, ROCK IMAP Kit). Here is the method:
The compounds were tested for inhibition of human ROCKα/ROCKII mix.
The inhibition assays were performed with a fluorescence polarization (FP) assay using the commercially available ROCK IMAP Kit from Molecular Devices (Product ID. No. R8093), essentially in accordance with the protocol supplied by the manufacturer. […] The enzyme mix ROCKα/ROCKII was obtained from Upstate Biotechnology (Product ID No 14-451).
In summary, the compound was screened in the wells of a 384 well plate for enzymatic inhibition with concentrations varying from 100 μM to 0.3 nM using a stepwise 3 (or 2)-fold dilution.
To perform the assay, 1 μl of a solution of the compound to be tested in DMSO (at each concentration) was added to 2 μl of a solution of the enzyme in 10 mM Tris-HCl , 10 mM MgCl2, 0.1% BSA, 0.05% NaN3, pH 7.2. The final concentration of the enzyme was 2.6 nM.
After incubating for 30 minutes at room temperature, 2 μl of a mixture of ATP and the protein substrate in 10 mM Tris-HCl, 10 mM MgCl2, 0.1% BSA, 0.05% NaN3, pH 7.2 was added. The final concentration of the ATP was 10 μM and final concentration of protein substrate was 0.2 μM.
After incubating for 60 minutes at room temperature, 12 μl of the IMAP Binding Solution (mix of the IMAP Binding Buffer A (1×) and the IMAP Binding Reagent (from the ROCK IMAP kit)) was added.
The mixture thus obtained (total volume: 17 μl) was incubated for 60 minutes at room temperature, upon which the fluorescence polarization was measured using an automated plate reader (Perkin Elmer, Model Envision 2100-0010 HTS) with FP filters: excitation filter FITC FP 480 and emission filters FITC FP P-pol 535 and FITC FP S-pol 535 (Perkin-Elmer). The results were fitted to a curve using the XL-Fit algorithm and IC50 values were calculated for each fitted curve, again using the XL-Fit algorithm.

[1] abbreviates: Table 2, compounds of Formula XIII.
[2] abbreviates: compounds of Formula XIV, Table 3.

T2 sequence (O75116 11-552 limits assumed): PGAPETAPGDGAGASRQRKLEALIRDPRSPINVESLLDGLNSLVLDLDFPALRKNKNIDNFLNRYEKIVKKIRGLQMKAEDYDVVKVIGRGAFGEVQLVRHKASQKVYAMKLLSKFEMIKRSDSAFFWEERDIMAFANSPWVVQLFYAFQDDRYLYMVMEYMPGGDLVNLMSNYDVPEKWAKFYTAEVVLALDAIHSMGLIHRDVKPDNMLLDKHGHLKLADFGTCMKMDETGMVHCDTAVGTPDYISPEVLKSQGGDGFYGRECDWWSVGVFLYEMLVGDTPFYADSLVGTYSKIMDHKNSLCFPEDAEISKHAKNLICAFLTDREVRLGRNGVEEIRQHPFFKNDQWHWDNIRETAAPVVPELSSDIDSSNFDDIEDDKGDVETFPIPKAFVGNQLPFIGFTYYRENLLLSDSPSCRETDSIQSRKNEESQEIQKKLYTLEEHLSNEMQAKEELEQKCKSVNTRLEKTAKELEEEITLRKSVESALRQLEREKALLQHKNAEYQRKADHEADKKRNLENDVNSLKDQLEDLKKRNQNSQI

With “4-{1-Amino-2-[(2- benzo[1,3]dioxol-5-yl- acetyl)-methyl-amino]-ethyl}- N-pyridin-4-yl-benzamide [Compound 432]”, the IC50 on PKC epsilon was in the range of 5 to 50 µM; against human ROCKα/ROCKII mix, 0.5 to 5 µM.

As for “4-{1-Amino-2-[(2- benzo[b]thiophen-3-yl- acetyl)-methyl- amino]-ethyl}- N-pyridin-4-yl-benzamide [Compound 444]”, the IC50 at PKC epsilon was in the range of 5 to 50 µM; against human ROCKα/ROCKII mix it was 0.5 to 5 µM.

Turning to “4-{1-Amino-2-[(2- cyclopentyl-2-phenyl- acetyl)-methyl- amino]-ethyl}- N-pyridin-4-yl-benzamide [Compound 455]”, the IC50 on PKC epsilon and on human ROCKα/ROCKII mix was 5 to 50 µM in each case.

“4-{1-Amino-2-[(2-biphenyl-4- yl-acetyl)-methyl- amino]-ethyl}- N-pyridin-4-yl-benzamide [Compound 436]”: the half-inhibitory concentration (IC50) on PKC epsilon lay in the range of 5 to 50 µM; at human ROCKα/ROCKII mix, 0.5 to 5 µM.

In the case of “4-{1-Amino-2-[(3-methyl- cyclohexanecarbonyl)-amino]-ethyl}- N-pyridin-4-yl-benzamide [Compound 45]”, the concentration for half-maximal inhibition (IC50) at PKC epsilon (setting [1]) and at human ROCKα/ROCKII mix (setting [1]) was 0.5 to 5 µM throughout.

“4-{1-Amino-2-[(4-methoxy- cyclohexanecarbonyl)-amino]-ethyl}- N-pyridin-4-yl-benzamide [Compound 44]”: the IC50 at PKC epsilon (setting [1]) fell in the range of 5 to 50 µM; against human ROCKα/ROCKII mix (setting [1]), 0.5 to 5 µM.

For “4-{1-Amino-2-[(furan-2- ylmethyl)-carbamoyl]-ethyl}- N-pyridin-4-yl-benzamide [Compound 278]”, the values for the IC50 at PKC epsilon (setting [2]) and at human ROCKα/ROCKII mix (setting [2]) were 0.5 to 5 µM and 0.05 to 0.5 µM, respectively.

For “4-{1-Amino-2-[(pyridin-2- ylmethyl)-carbamoyl]-ethyl}- N-pyridin-4-yl-benzamide [Compound 277]”, the results for the half-maximal inhibitory concentration (IC50) on PKC epsilon (setting [2]) and on human ROCKα/ROCKII mix (setting [2]) were 0.5 to 5 µM and 0.05 to 0.5 µM, respectively.

As to “4-{1-Amino-2-[(pyridin-4- ylmethyl)-carbamoyl]-ethyl}- N-pyridin-4-yl-benzamide [Compound 276]”, the IC50 at PKC epsilon (setting [2]) lay in the range of 0.5 to 5 µM; against human ROCKα/ROCKII mix (setting [2]), 0.05 to 0.5 µM.

Take “4-{1-Amino-2-[(thiophen-2- ylmethyl)-carbamoyl]-ethyl}- N-pyridin-4-yl-benzamide [Compound 279]”: the 50% inhibitory concentration (IC50) on PKC epsilon (setting [2]) was 0.5 to 5 µM; on human ROCKα/ROCKII mix (setting [2]), 0.05 to 0.5 µM.

For the molecule “4-{1-Amino-2-[ethyl-(4-nitro- benzyl}-carbamoyl]-ethyl)-N- pyridin-4-yl-benzamide [Compound 274]”, the IC50 on PKC epsilon (setting [2]) was in the range of 0.5 to 5 µM; at human ROCKα/ROCKII mix (setting [2]) it was 0.05 to 0.5 µM.

With “4-{1-Amino-2-[methyl-(1- phenyl- cyclopropanecarbonyl)- amino]-ethyl}- N-pyridin-4-yl-benzamide [Compound 452]”, the IC50 at PKC epsilon lay in the range of 5 to 50 µM; on human ROCKα/ROCKII mix, 0.5 to 5 µM.

On to “4-{1-Amino-2-[methyl-(1- thiophen-2-yl- cyclopropanecarbonyl)- amino]-ethyl}- N-pyridin-4-yl-benzamide [Compound 448]”, for which the IC50 was 5 to 50 µM on PKC epsilon and 0.5 to 5 µM at human ROCKα/ROCKII mix.

With “4-{1-Amino-2-[methyl-(1- thiophen-3-yl- cyclopropanecarbonyl)- amino]-ethyl}- N-pyridin-4-yl-benzamide [Compound 450]”, the IC50 at PKC epsilon lay in the range of 5 to 50 µM; against human ROCKα/ROCKII mix it was 0.5 to 5 µM.

In the case of “4-{1-Amino-2-[methyl-(2- methyl-2-thiophen-2-yl- propionyl)- amino]-ethyl}- N-pyridin-4-yl-benzamide [Compound 447]”, the concentration for half-maximal inhibition (IC50) on PKC epsilon and on human ROCKα/ROCKII mix was 0.5 to 5 µM each time.

In the case of “4-{1-Amino-2-[methyl-(2- methyl-2-thiophen-3-yl- propionyl)- amino]-ethyl}- N-pyridin-4-yl-benzamide [Compound 449]”, the IC50 at PKC epsilon lay in the range of 5 to 50 µM; on human ROCKα/ROCKII mix, 0.5 to 5 µM.

Regarding “4-{1-Amino-2-[methyl-(2- naphthalen-1-yl-acetyl)- amino]-ethyl}- N-pyridin-4-yl-benzamide [Compound 435]”, the IC50 was 5 to 50 µM at PKC epsilon and 0.5 to 5 µM against human ROCKα/ROCKII mix.

For the molecule “4-{1-Amino-2-[methyl-(2- naphthalen-2-yl-acetyl)- amino]-ethyl}- N-pyridin-4-yl-benzamide [Compound 434]”, the IC50 lay within 0.5 to 5 µM on PKC epsilon and 0.05 to 0.5 µM on human ROCKα/ROCKII mix.

Consider “4-{1-amino-2-[2-(4- trifluoromethyl-phenyl)- ethylcarbamoyl]-ethyl}-N- pyridin-4-yl-benzamide [Compound 309]”, for which the IC50 at PKC epsilon (setting [2]) was 0.5 to 5 µM; on human ROCKα/ROCKII mix (setting [2]), 0.05 to 0.5 µM.

As for “4-{1-amino-2-[2-(4-bromo-2- methoxy-phenyl)- ethylcarbamoyl]-ethyl}-N- pyridin-4-yl-benzamide [Compound 310]”, the 50% inhibitory concentration (IC50) on PKC epsilon (setting [2]) fell in the range of 0.5 to 5 µM; on human ROCKα/ROCKII mix (setting [2]), 0.05 to 0.5 µM.

For “4-{1-amino-2-[2-(4-methy)- octanoylamino]-ethyl}-N-pyridin-4-yl- benzamide [Compound 37]”, the 50% inhibitory concentration (IC50) on PKC epsilon (setting [1]) was 0.5 to 5 µM; on human ROCKα/ROCKII mix (setting [1]) it was 0.05 to 0.5 µM.

Turning to “4-{Amino-[1-(2-1H-indol-3-yl-acetyl)-pyrrolidin-2-yl]-methyl}-N-pyridin-4-yl-benzamide [Compound 545]”, the IC50 lay in the range of 0.5 to 5 µM on PKC epsilon and 0.05 to 0.5 µM against human ROCKα/ROCKII mix.

For the molecule `N[C@H](CC(=O)NC1COc2ccccc21)c1ccc(C(=O)Nc2ccncc2)cc1` (mixture of isomers) [Compound 403, 4-[(R)-1-Amino-2-(2,3-dihydro-benzofuran-3-ylcarbamoyl)-ethyl]-N-pyridin-4-yl-benzamide dihydrochloric acid salt], the IC50 on PKC epsilon and on human ROCKα/ROCKII mix was below 0.05 µM in each case.

Turning to `N[C@@H](CC(=O)NC1COc2ccccc21)c1ccc(C(=O)Nc2ccncc2)cc1` (mixture of isomers) [Compound 404, 4-[(S)-1-Amino-2-(2,3-dihydro-benzofuran-3-ylcarbamoyl)-ethyl]-N-pyridin-4-yl-benzamide dihydrochloric acid salt], the half-inhibitory concentration (IC50) fell in the range of 0.5 to 5 µM on PKC epsilon and 0.05 to 0.5 µM against human ROCKα/ROCKII mix.

With `CC(C)(C)ON=Cc1cccc(C(=O)NCC(N)c2ccc(C(=O)Nc3ccncc3)cc2)c1` (racemic) [Compound 101, 4-{1-amino-2-[(3-tert-butoxyimino-methyl)-benzoylamino]-ethyl}-N-pyridin-4-yl-benzamide], the 50% inhibitory concentration (IC50) on PKC epsilon (setting [1]) and against human ROCKα/ROCKII mix (setting [1]) was 0.5 to 5 µM throughout.

Regarding `CC(C)(C)ON=Cc1ccc(C(=O)NCC(N)c2ccc(C(=O)Nc3ccncc3)cc2)cc1` (racemic) [Compound 102, 4-{1-amino-2-[(4-tert-butoxyimino-methyl)-benzoylamino]-ethyl}-N-pyridin-4-yl-benzamide], the concentration for half-maximal inhibition (IC50) lay in the range of 5 to 50 µM on PKC epsilon (setting [1]) and 0.5 to 5 µM at human ROCKα/ROCKII mix (setting [1]).

For `NC(CC(=O)NC1CCCc2ccccc21)c1ccc(C(=O)Nc2ccncc2)cc1` (single isomer, unassigned) [Compound 221], the IC50 at PKC epsilon (setting [2]) and against human ROCKα/ROCKII mix (setting [2]) was 0.05 to 0.5 µM in each case.

`NC(CC(=O)NC1CCCc2ccccc21)c1ccc(C(=O)Nc2ccncc2)cc1` (single isomer, unassigned) [Compound 222]: the 50% inhibitory concentration (IC50) at PKC epsilon (setting [2]) was in the range of 5 to 50 µM; on human ROCKα/ROCKII mix (setting [2]), 0.05 to 0.5 µM.

For `CCNC(=S)NCC(N)c1ccc(C(=O)Nc2ccncc2)cc1` (stereo not shown) [Compound 1, 4-[1-amino-2-(3-ethyl-thioureido)-ethyl]-N-pyridin-4-yl-benzamide], the half-maximal inhibitory concentration (IC50) at PKC epsilon and at human ROCKα/ROCKII mix was 0.5 to 5 µM each time.
